As a reminder, the IC50 is the concentration needed to halve the response being measured. As a reminder, the EC50 is the concentration giving half of the maximal effect. The term inhibition denotes the share of the control response that was lost under treatment.

This is an account of results in ChEMBL document CHEMBL4396887, “Five-Membered N-Heterocyclic Scaffolds as Novel Amino Bioisosteres at γ-Aminobutyric Acid (GABA) Type A Receptors and GABA Transporters” (J Med Chem, 2019).

The source made the active and inactive calls. The calls are words filed in the database; no cut-off is given here.

What all share (type): cell-based
For assay [1], the target named is T1, Sodium- and chloride-dependent GABA transporter 2 (Homo sapiens, UniProt Q9NSD5).
T1 sequence (Q9NSD5 whole entry): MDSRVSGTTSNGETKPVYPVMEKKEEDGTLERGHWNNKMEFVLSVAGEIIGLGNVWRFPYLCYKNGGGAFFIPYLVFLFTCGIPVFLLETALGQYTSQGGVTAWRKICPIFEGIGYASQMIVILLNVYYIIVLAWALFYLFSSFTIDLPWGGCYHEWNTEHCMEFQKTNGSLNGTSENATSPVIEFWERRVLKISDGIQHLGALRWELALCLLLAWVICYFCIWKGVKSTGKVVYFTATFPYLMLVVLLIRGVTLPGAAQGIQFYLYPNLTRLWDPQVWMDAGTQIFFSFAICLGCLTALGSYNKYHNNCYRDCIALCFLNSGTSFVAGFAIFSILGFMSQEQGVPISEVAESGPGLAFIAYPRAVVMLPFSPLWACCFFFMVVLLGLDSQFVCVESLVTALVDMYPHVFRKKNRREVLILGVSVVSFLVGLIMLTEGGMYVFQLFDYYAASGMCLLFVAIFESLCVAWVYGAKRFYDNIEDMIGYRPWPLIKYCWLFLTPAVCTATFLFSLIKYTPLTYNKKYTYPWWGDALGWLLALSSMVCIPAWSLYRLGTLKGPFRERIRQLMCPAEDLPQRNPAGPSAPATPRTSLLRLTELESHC
Briefly: Inhibition of human GAT2 expressed in Flp-In CHO cells assessed as reduction in [3H]GABA uptake incubated for 3 mins by liquid scintillation counting method.

The target in assay [2] is T2, Gamma-aminobutyric acid receptor subunit rho-1 (Homo sapiens, UniProt P24046). Briefly: Agonist activity at recombinant human GABA-A rho-1 receptor transiently expressed in human tsA201 cells incubated for 30 mins and measured up to 90 secs by FMP dye based FLIPR membrane potential blue assay.
T2 sequence (P24046 whole entry): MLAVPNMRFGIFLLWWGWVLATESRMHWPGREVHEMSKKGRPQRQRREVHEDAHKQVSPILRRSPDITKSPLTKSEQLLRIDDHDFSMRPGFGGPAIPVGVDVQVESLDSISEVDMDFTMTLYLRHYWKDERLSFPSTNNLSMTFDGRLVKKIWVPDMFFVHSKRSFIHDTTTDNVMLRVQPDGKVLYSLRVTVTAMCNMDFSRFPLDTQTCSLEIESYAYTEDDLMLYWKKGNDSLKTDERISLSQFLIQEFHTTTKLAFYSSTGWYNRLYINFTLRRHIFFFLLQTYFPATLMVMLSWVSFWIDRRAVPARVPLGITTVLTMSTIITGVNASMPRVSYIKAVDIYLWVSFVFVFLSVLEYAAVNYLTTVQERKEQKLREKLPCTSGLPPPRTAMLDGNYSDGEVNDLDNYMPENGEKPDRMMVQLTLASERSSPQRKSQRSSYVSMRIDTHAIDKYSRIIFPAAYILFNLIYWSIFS
Assay [3] has as its target T3, Gamma-aminobutyric acid receptor subunit alpha-5/beta-2/gamma-2 (Homo sapiens, UniProt P18507+P31644+P47870).
T3 sequence (P47870 whole entry): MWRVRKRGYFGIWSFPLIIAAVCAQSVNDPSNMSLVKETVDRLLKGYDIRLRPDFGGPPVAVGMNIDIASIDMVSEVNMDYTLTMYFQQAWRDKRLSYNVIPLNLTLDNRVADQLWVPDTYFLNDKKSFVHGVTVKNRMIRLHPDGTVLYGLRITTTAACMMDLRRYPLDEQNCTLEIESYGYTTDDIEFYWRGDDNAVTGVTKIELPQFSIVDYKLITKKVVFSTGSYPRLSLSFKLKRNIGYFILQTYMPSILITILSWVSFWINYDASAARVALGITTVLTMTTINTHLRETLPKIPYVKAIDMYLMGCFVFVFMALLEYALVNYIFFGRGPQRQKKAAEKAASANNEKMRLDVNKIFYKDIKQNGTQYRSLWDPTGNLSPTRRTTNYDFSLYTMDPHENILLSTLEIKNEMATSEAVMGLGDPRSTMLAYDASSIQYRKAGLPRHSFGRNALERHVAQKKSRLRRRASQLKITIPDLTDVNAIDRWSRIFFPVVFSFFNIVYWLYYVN
T3 sequence (P18507 whole entry): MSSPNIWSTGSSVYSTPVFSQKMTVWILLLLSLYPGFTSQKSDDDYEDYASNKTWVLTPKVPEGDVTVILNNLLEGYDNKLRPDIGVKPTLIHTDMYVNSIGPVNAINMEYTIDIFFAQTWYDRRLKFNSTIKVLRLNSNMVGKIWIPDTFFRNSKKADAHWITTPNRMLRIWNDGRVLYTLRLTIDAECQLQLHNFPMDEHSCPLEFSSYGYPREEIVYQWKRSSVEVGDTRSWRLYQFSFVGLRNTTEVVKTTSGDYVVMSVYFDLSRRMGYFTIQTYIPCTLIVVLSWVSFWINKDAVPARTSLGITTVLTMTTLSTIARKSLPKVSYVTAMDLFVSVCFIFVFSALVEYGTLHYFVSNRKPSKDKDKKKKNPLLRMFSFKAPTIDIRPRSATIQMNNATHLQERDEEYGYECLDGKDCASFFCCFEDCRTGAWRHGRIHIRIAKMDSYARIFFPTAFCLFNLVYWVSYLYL
T3 sequence (P31644 whole entry): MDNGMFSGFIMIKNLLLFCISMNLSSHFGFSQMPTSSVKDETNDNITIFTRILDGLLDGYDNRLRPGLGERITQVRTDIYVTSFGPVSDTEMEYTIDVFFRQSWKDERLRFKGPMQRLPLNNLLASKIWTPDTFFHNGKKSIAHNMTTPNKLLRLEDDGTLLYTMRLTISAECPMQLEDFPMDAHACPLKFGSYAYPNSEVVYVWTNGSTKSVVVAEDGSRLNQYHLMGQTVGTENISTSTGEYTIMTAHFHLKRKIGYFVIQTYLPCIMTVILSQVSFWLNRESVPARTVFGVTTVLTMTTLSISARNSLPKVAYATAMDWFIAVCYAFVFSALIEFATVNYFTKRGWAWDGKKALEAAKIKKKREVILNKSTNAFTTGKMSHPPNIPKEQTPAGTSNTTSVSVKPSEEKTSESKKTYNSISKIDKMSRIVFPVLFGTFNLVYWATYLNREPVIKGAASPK
Nature of the assay: Agonist activity at recombinant human GABA-A alpha5beta2gamma2S receptor transiently expressed in human tsA201 cells incubated for 30 mins and measured up to 90 secs by FMP dye based FLIPR membrane potential blue assay.

In assay [4] the target is T2, Gamma-aminobutyric acid receptor subunit rho-1. Briefly: Agonist activity at recombinant human GABA-A rho-1 receptor transiently expressed in human tsA201 cells assessed as GABA-induced maximum response incubated for 30 mins and measured up to 90 secs by FMP dye based FLIPR membrane potential blue assay relative to GABA.
Assay [5] has as its target Gamma-aminobutyric acid receptor subunit alpha-5/beta-2/gamma-2 (Homo sapiens) (UniProt P47870+P18507+P31644). Briefly: Agonist activity at recombinant human GABA-A alpha5beta2gamma2S receptor transiently expressed in human tsA201 cells assessed as GABA-induced maximum response incubated for 30 mins and measured up to 90 secs by FMP dye based FLIPR membrane potential blue assay relative to GABA.

Assay [6] addresses GABA-A receptor; alpha-1/beta-2/gamma-2 (Homo sapiens) (UniProt P14867+P47870+P18507). Nature of the assay: Agonist activity at recombinant human GABA-A alpha1beta2gamma2S receptor transiently expressed in human tsA201 cells assessed as GABA-induced maximum response incubated for 30 mins and measured up to 90 secs by FMP dye based FLIPR membrane potential blue assay relative to GABA.

For assay [7], the species on record is Homo sapiens. Nature of the assay: Agonist activity at recombinant human GABA-A alpha3beta2gamma2S receptor transiently expressed in human tsA201 cells assessed as GABA-induced maximum response incubated for 30 mins and measured up to 90 secs by FMP dye based FLIPR membrane potential blue assay relative to GABA.
Assay [8] has as its target T4, Sodium- and chloride-dependent GABA transporter 2 (Homo sapiens) (UniProt Q9NSD5).
T4 sequence (whole entry): T1 sequence (Q9NSD5 whole entry)
Briefly: Inhibition of human GAT2 expressed in Flp-In CHO cells assessed as reduction in [3H]GABA uptake at 100 uM incubated for 3 mins by liquid scintillation counting method relative to control.

`CC(C(=O)O)C1CSC(N)=N1` (stereo in doubt; l-10b): in assay [1], the IC50 was greater than 100 µM. For the same compound, the figures for the EC50 in assay [2] (read-out: EC50) and in assay [3] were 1.2 µM and 11 µM, respectively.
For `NC1=NC(CC(=O)O)CS1` (stereo unspecified), the Rmax in assay [4] was determined as 43%; in assay [5], 98%; in assay [6] it was 86%; in assay [7], 95%. Also, in assay [1], the half-inhibitory concentration (IC50) was 79.1 µM. The EC50 in assay [2] (read-out: EC50) was 6.5 µM; in assay [3] it was 0.22 µM. The inhibition in assay [8] is greater than 30%.
As to `C[C@@H](C(=O)O)[C@H]1CSC(N)=N1` (relative stereo), the IC50 in assay [1] is greater than 100 µM. In addition, the Rmax in assay [5] was 94%; in assay [6] it was 59%; in assay [7] it was 96%. The EC50 in assay [3] stood at 2.6 µM. Further, in assay [8], the inhibition was greater than 30%.
Turning to `O=C(O)C[C@H]1CCNC1`, the Rmax in assay [4] amounted to 101%; in assay [5] it was 99%; in assay [6] it was 93%; in assay [7], 102%. In addition, in assay [1], the IC50 worked out at 7.3 µM. In addition, the EC50 worked out at 8.4 µM in assay [2] (read-out: EC50) and 0.94 µM in assay [3]. In assay [8], the inhibition was greater than 30%.
`C[C@@H]1SC(N)=N[C@@H]1CC(=O)O` (relative stereo): in assay [1], the IC50 was greater than 100 µM. Also, the Rmax stood at 92% in assay [5] and 76% in assay [7]. Further, the Rmax entry in assay [6] was “inactive”. In assay [3], the EC50 came to 8.2 µM. Also, in assay [8], the inhibition was greater than 30%.
For the compound `CC(C(=O)O)C1CSC(N)=N1` (stereo in doubt; l-10a), the half-inhibitory concentration (IC50) in assay [1] is greater than 100 µM. Moreover, the EC50 amounted to 7.4 µM in assay [2] (read-out: EC50) and 2.7 µM in assay [3].
Regarding `O=C(O)CC1CNC=N1` (stereo unspecified), the Rmax turned out to be 45% in assay [4], 88% in assay [5], 1% in assay [6] and 91% in assay [7]. For the same compound, in assay [1], the IC50 amounted to 2.9 µM. Moreover, the figures for the EC50 in assay [2] (read-out: EC50) and in assay [3] were 2.8 µM and 0.79 µM, respectively. Besides, the inhibition in assay [8] was greater than 30%.
For `C[C@H]1SC(N)=N[C@@H]1CC(=O)O` (relative stereo), the Rmax result in assay [4], in assay [6] and in assay [7] was “inactive” throughout. Besides, in assay [1], the concentration for half-maximal inhibition (IC50) was greater than 100 µM. The Rmax in assay [5] came to 90%. In addition, the EC50 entry was “Not Active” in assay [2] and 17 µM in assay [3]. Further, the pEC50 result in assay [2] is “inactive”. Moreover, the inhibition in assay [8] was greater than 30%.
Consider `O=C(O)C[C@@H]1CCNC1`, for which the Rmax entry in assay [4], in assay [6] and in assay [7] was “inactive” each time. Further, the half-inhibitory concentration (IC50) in assay [1] stood at 16 µM. Besides, in assay [5], the Rmax was 86%. The EC50 result is “Not Active” in assay [2] and 24 µM in assay [3]. For the same compound, the pEC50 entry in assay [2] was “inactive”. In addition, in assay [8], the inhibition is greater than 30%.
As for `NC1=NC(CC(=O)O)CN1` (stereo unspecified), the Rmax in assay [4] was 64%; in assay [5] it was 90%; in assay [6], 81%; in assay [7] it was 105%. Moreover, in assay [1], the IC50 stood at 132 µM. Moreover, the results for the 50% effective concentration (EC50) in assay [2] (read-out: EC50) and in assay [3] were 3.8 µM and 1.6 µM, respectively. Moreover, the inhibition in assay [8] was greater than 30%.
Regarding `C[C@@H](C(=O)O)[C@@H]1CSC(N)=N1` (relative stereo), the Rmax was determined as 35% in assay [4], 81% in assay [5], 22% in assay [6] and 19% in assay [7]. Besides, the IC50 in assay [1] is greater than 100 µM. Besides, the EC50 in assay [2] (read-out: EC50) is 1.6 µM; in assay [3], 3 µM. Moreover, the inhibition in assay [8] was greater than 30%.
